# Test results taken from PubChem BioAssay AID1919007 (Molecular Pharmacology Branch, DTP, NCI, 2023).
# Values joined by “and” are separate entries in the source; they are usually repeats but may differ in a detail not shown here. Identical values can stand only once.
# Tested on: A498 complex spheroids with HUVEC/MSC, growth
# Test: Anticancer human tumor A498 cell line growth inhibition [AhR];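 also: seven day exposure starting three days after spheroid seeding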;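 as to viability, T/C: luminescence signal used as a surrogate for viable cells; luminescence viability scaled so 100% equals DMSO vehicle wells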
# Settings: for viability, T/C: stronger effect = lower value
# Description: Multicellular complex tumor spheroid response to aryl hydrocarbon receptor antagonists in combination with a variety of drugs and investigational agents in selected tumor cell lines
# The current study was undertaken to assess response to aryl hydrocarbon receptor antagonists in combination with standard-of-care drugs and investigational agents in solid tumor complex spheroid models. Complex spheroids include a stromal component modeled by human endothelial cells (HUVEC) and fibroblasts modeled by human mesenchymal stem cells (MSCs). The concentration ranges selected for each drug and investigational agent were based upon clinically achievable concentrations if the clinical Cmax of the agent was known.
# Compounds. The drugs and investigational agents: BAY 2416964 (NSC825713), GNF351 (NSC835774), CH-223191 (NSC835775), CPI-455 (NSC825282), aza-TdCyd (NSC777586), decitabine (NSC127716), belinostat (NSC758774), entinostat (NSC756642), pevonedistat (NSC761192), tazemetostat (NSC777109), talazoparib (NSC765396), olaparib (NSC753686), selinexor (NSC780203), nedisertib (M3814, NSC802822), bortezomib (NSC756655), venetoclax (NSC766270), doxorubicin (NSC123127), elimusertib (BAY189344, NSC800525), ceralasertib (AZD6738, NSC777638), TAK-243 (NSC785004), alisertib (NSC759677), etoposide (NSC141540), topotecan (NSC609699), eribulin (NSC707389), gemcitabine (NSC613327), carboplatin (NSC241240), cisplatin (NSC119875), and SN-38 (NSC673596) were obtained from the National Cancer Institute (NCI) Developmental Therapeutics Program Chemical Repository (32). The FDA-approved anticancer drug set is available from the Developmental Therapeutics Program at https://dtp.cancer.gov/organization/dscb/obtaining/available plates.htm. […] The stock solutions were prepared in dimethyl sulfoxide (DMSO, Sigma-Aldrich, St. Louis, MO, cat. D2650), except for the platinum compounds which were prepared in saline (Quality Biological, Gaithersburg, MD, cat. 114-055-101), at 800-fold the tested concentration and stored at -70 degrees C prior to their use. All drugs and investigational agents were tested over a range starting from a high concentration at or near the clinical Cmax and decreasing in half-log increments. If the clinical Cmax for an agent had not been determined, the highest concentration tested was 10 microM (Table 1).
# Cell Culture. All cells were maintained in an incubator at 37 degrees C and 5% CO2 with 95% humidity. The PDC lines were cultured according to standard operating procedures established by the NCI PDMR (https://pdmr.cancer.gov). Briefly, all PDCs were thawed and cultured in Matrigel-coated flasks prepared with a working solution of 1X Ham's F-12 nutrient mix, without supplementation (Invitrogen, Waltham, MA, cat. 11765054), 100 U/mL penicillin-streptomycin (Invitrogen, cat. 15140122), and 2.5% Matrigel (Corning Inc., Corning, NY, cat. 354248) for the first three passages. All PDCs were cultured in complete DMEM/F-12 media containing advanced DMEM/F-12 (Invitrogen, cat. 12634028), 4.9% defined fetal bovine serum, heat inactivated (HyClone Laboratories Inc., Logan, UT, cat. SH30070.03HI), 389 ng/mL hydrocortisone (Sigma-Aldrich, cat. H4001), 9.7 ng/mL human EGF recombinant protein (Invitrogen, cat. PHG0313), 23.4 microg/mL adenine (Sigma-Aldrich, cat. A2786), 97.3 U/mL penicillin-streptomycin (Invitrogen, cat. 15140122), 1.9 mM L-glutamine (Invitrogen, cat. 25030081), and 9.7 microM Y-27632 dihydrochloride (Tocris Bioscience, Bristol, United Kingdom, cat. 1254). The PDCs were cultured in complete DMEM/F12 media without 10 microM Y-27632 dihydrochloride for at least two passages prior to the screen. The established cell lines NCI-H1341 and […] were cultured in DMEM/F-12, HEPES (Invitrogen, cat. 11330032), 5% defined fetal bovine serum (HyClone Laboratories Inc., cat. SH30070.03), ITS premix universal culture supplement [insulin (5 microg/mL), transferrin (5 microg/mL), and selenious acid (5 ng/mL)] […]
smiles,measurement,setting,value
CC(C)CC(NC(=O)C(Cc1ccccc1)NC(=O)c1cnccn1)B(O)O (centres undefined) + Cc1cncc(-c2nc(NCCc3c[nH]c4ccccc34)c3ncn(C(C)C)c3n2)c1,IC50,"curve of first compound, second compound 0.1 µM",4.75 nM
same,IC50,"curve of first compound, second compound 0.316 µM",5.08 nM
same,IC50,"curve of first compound, second compound 1 µM",4.69 nM
same,IC50,"curve of first compound, second compound 3.16 µM",3.34 nM
same,IC50,"curve of first compound, second compound 10 µM",< 0.949 nM
same,"viability, T/C","second compound 0.1 µM, first compound 0.000949 µM",91%
same,"viability, T/C","second compound 0.1 µM, first compound 0.003 µM",79.8%
same,"viability, T/C","second compound 0.1 µM, first compound 0.00949 µM",5.02%
same,"viability, T/C","second compound 0.1 µM, first compound 0.03 µM",1.12%
same,"viability, T/C","second compound 0.1 µM, first compound 0.0949 µM",0.37%
same,"viability, T/C","second compound 0.1 µM, first compound 0.3 µM",0.34%
same,"viability, T/C","second compound 0.316 µM, first compound 0.000949 µM",95.5%
same,"viability, T/C","second compound 0.316 µM, first compound 0.003 µM",88.7%
same,"viability, T/C","second compound 0.316 µM, first compound 0.00949 µM",4.18%
same,"viability, T/C","second compound 0.316 µM, first compound 0.03 µM",1.1%
same,"viability, T/C","second compound 0.316 µM, first compound 0.0949 µM",0.36%
same,"viability, T/C","second compound 0.316 µM, first compound 0.3 µM",0.3%
same,"viability, T/C","second compound 1 µM, first compound 0.000949 µM",88.2%
same,"viability, T/C","second compound 1 µM, first compound 0.003 µM",79.1%
same,"viability, T/C","second compound 1 µM, first compound 0.00949 µM",4.22%
same,"viability, T/C","second compound 1 µM, first compound 0.03 µM",0.83%
same,"viability, T/C","second compound 1 µM, first compound 0.0949 µM",0.33%
same,"viability, T/C","second compound 1 µM, first compound 0.3 µM",0.36%
same,"viability, T/C","second compound 3.16 µM, first compound 0.000949 µM",62.5%
same,"viability, T/C","second compound 3.16 µM, first compound 0.003 µM",54.9%
same,"viability, T/C","second compound 3.16 µM, first compound 0.00949 µM",3.44%
same,"viability, T/C","second compound 3.16 µM, first compound 0.03 µM",0.63%
same,"viability, T/C","second compound 3.16 µM, first compound 0.0949 µM",0.22%
same,"viability, T/C","second compound 3.16 µM, first compound 0.3 µM",0.3%
same,"viability, T/C","second compound 10 µM, first compound 0.000949 µM",5.04%
same,"viability, T/C","second compound 10 µM, first compound 0.003 µM",3.31%
same,"viability, T/C","second compound 10 µM, first compound 0.00949 µM",0.4%
same,"viability, T/C","second compound 10 µM, first compound 0.03 µM",0.14%
same,"viability, T/C","second compound 10 µM, first compound 0.0949 µM",0.15%
same,"viability, T/C","second compound 10 µM, first compound 0.3 µM",0.22%
NS(=O)(=O)OCC1CC(n2ccc3c(NC4CCc5ccccc54)ncnc32)CC1O (centres undefined),"viability, T/C",compound 0.0316 µM,96.3% and 93.7% and 99.8%
same,"viability, T/C",compound 0.1 µM,93.4% and 87.1% and 85.3%
same,"viability, T/C",compound 0.316 µM,56.3% and 53.1% and 37.4%
same,"viability, T/C",compound 1 µM,34.4% and 34.5% and 28.6%
same,"viability, T/C",compound 3.16 µM,23.7% and 26.2% and 21.3%
same,"viability, T/C",compound 10 µM,16.6% and 20% and 16.1%
same,IC50,curve of compound,474 nM and 421 nM and 239 nM
CC1(C)CCC(CN2CCN(c3ccc(C(=O)NS(=O)(=O)c4ccc(NCC5CCOCC5)c([N+](=O)[O-])c4)c(Oc4cnc5[nH]ccc5c4)c3)CC2)=C(c2ccc(Cl)cc2)C1,"viability, T/C",compound 0.0316 µM,99.2% and 106% and 101%
same,"viability, T/C",compound 0.1 µM,115% and 103% and 98.6%
same,"viability, T/C",compound 0.316 µM,96.3% and 101% and 95.3%
same,"viability, T/C",compound 1 µM,86.8% and 94.5% and 92.4%
same,"viability, T/C",compound 3.16 µM,80.8% and 86% and 84.5%
same,"viability, T/C",compound 10 µM,28.3% and 56.8% and 25.5%
same,IC50,curve of compound,6010 nM and > 10000 nM and 6170 nM
